Test results from patent US20120214847A1, “2-[1-PHENYL-5-HYDROXY-4a-SUBSTITUTED-HEXAHYDROCYCLOPENTA[F]INDAZOL-5-YL]ETHYL PHENYL DERIVATIVES AS GLUCOCORTICOID RECEPTOR LIGANDS” (Merck Sharp & Dohme Corp., priority 2009, published 2012).
Where two headings read alike, the source gives them in different places.

Target: T1, human GR (Homo sapiens, UniProt P04150)
T1 construct: naturally expresses the human GR; endogenous in cells
T1 sequence (P04150 1-777): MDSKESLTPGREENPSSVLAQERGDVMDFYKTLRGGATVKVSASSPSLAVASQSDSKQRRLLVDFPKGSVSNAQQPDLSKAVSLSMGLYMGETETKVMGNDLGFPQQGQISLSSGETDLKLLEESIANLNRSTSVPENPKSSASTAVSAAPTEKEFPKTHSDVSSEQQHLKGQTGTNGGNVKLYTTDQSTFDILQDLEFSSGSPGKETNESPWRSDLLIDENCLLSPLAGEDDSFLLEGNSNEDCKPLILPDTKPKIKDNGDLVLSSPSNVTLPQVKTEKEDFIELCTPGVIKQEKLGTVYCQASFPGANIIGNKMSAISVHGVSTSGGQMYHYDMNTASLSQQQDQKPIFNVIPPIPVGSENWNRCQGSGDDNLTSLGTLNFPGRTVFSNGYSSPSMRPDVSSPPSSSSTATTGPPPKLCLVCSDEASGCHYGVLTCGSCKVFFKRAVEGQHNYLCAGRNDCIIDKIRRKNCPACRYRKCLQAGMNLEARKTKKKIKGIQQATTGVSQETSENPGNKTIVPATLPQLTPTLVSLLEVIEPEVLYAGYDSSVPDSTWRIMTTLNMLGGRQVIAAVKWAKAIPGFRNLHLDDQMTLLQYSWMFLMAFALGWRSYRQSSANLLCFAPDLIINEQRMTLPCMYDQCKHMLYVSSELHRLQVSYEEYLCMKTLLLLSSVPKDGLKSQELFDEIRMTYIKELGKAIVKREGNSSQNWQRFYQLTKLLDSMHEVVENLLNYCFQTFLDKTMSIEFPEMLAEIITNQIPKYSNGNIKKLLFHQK
Assay: Trans-activation modulation of glucocorticoid receptor (GRAMMER), MMTV-LUC reporter in A549 cells
Assay type: cell-based
Settings: for Transactivation A549 Cells Grammer Emax (%) / Emax: Emax relative to the activity obtained with 300 nM dexamethasone; for EC50: IP = inflection point, read-out: Transactivation A549 Cells Grammer IP; for Emax: read-out: Transactivation A549 Cells Grammer Emax (%)
From the text: Trans-Activation Modulation of Glucocorticoid Receptor (GRAMMER)
This assay assesses the ability of test compounds to control transcription from the MMTV-LUC reporter gene in lung adenocarcinoma A549 cells or HeLa cells, a human […] cell line that naturally expresses the human GR. The assay measures induction of a modified MMTV LTR/promoter linked to the LUC reporter gene.
The routine transient assay consists of plating 7,000-25,000 cells/well of a white, clear-bottom 96-well plate. Alternatively, 384-well plates can be used at a cell concentration of 10,000/well. The media that the cells are plated in is “exponential growth medium” which consists of phenol red-free RPMI1640 containing 10% FBS, 4 mM L-glutamine, 20 mM HEPES, 10 ug/mL human insulin, and 20 ug/mL gentamicin. Incubator conditions are 37° C. and 5% C02. The transfection is done in batch mode. The cells are trypsinized and counted to the right cell number in the proper amount of fresh media. It is then gently mixed with the FuGene6/DNA 25 mix and plated onto the 96 or 384-well plate, all the wells receive 100 uL or 40 uL, respectively, of medium+lipid/DNA complex then incubated 37° C. overnight. The transfection cocktail consists of serum-free OptiMEM, FuGene6 reagent and DNA. The manufacturer's (Roche Biochemical) protocol for cocktail setup is as follows: The lipid to DNA ratio is approximately 2.5:1 and the incubation time is 20 min at room temperature. Sixteen to 24 h after transfection, the cells are treated with dexamethasone to a final concentration of 10 nM as well as the compound of interest, such that final DMSO (vehicle) concentration is equal to or less than 1%. Each plate also contains samples that are treated with 10 nM dexamethasone alone, which is used as the 100% activity control. The cells are exposed to the compounds for 24 h. After 24 h, the cells are lysed by a Promega cell culture lysis buffer for approximately 30 min and then the luciferase activity in the extracts is assayed in the 96-well format luminometer. In 384 well format, Steady-Glo (Promega) or Steady-Lite (PerkinElmer) can be used by adding an equal volume of reagent to the media present in each well. Activity induced by 10 nM dexamethasone alone is set at 100% activity. Antagonist activity is calculated by determining the decrease in dexamethasone-induced activity in response to compound treatment relative to samples that were treated with dexamethasone alone. Results are expressed as % inhibition of 10 nM dexamethasone activity or as fold of 10 nM dexamethasone activity. This transactivation assay can be performed in an agonist and antagonist mode to identify these different activities.
Activity of test compounds is calculated as the Emax relative to the activity obtained with 300 nM dexamethasone. […] The exemplified tissue selective glucocorticoid receptor modulators of the present invention display agonist activity in this assay of greater than 5% and less than 100%, and maximal transactivation activity less then maximal transrepression activity. The action of compounds is also tested in an antagonist mode (Anti-GRAMMER) in which the cells are treated with medium containing an agonist such as 10 nM DEX and the ability of agents to inhibit the activation by an agonist is measured.

`CC[C@]12Cc3cnn(-c4ccc(F)cc4)c3C=C1CC[C@@]2(O)CCc1ccccc1C(O)C(N)=O` (stereo partly drawn) [Example 26, 2-(2-{2-[(4aS,5R)-4a-Ethyl-1-(4-fluorophenyl)-5-hydroxy-1,4,4a,5,6,7-hexahydrocyclopenta[f]indazol-5-yl]ethyl}phenyl)-2-hydroxyacetamide] was tested, and the “Transactivation A549 Cells Grammer Emax (%)” value (A549 cells) was 58% and the EC50 (A549 cells) was 161 nM.

`CC[C@]12Cc3cnn(-c4cccc(F)c4)c3C=C1CC[C@@]2(O)CCc1ccccc1C(N)=O` [Example 11, 2-{2-[(4aS,5R)-4a-Ethyl-1-(3-fluorophenyl)-5-hydroxy-1,4,4a,5,6,7-hexahydrocyclopenta[f]indazol-5-yl]ethyl}benzamide] showed an Emax (A549, A549 cells) of 41% and an EC50 (A549 cells) of 83 nM.

`N#Cc1ccccc1CC[C@]1(O)CCC2=Cc3c(cnn3-c3cccnc3)C[C@@]21C1CC1` [Example 30, 2-{2-[(4aR,5R)-4a-Cyclopropyl-5-hydroxy-1-(pyridin-3-yl)-1,4,4a,5,6,7-hexahydrocyclopenta[f]indazol-5-yl]ethyl}benzonitrile] was tested, and the Emax (A549, A549 cells) was 4% and the EC50 (A549 cells) was 126 nM.

With `CC[C@]12Cc3cnn(-c4ccccc4)c3C=C1CC[C@@]2(O)CC(O)c1ccccn1` (single isomer, unassigned) [Example 67b] the “Transactivation A549 Cells Grammer Emax (%)” value (A549 cells) was 10% and the EC50 (A549 cells) was 174 nM.

With `CC[C@]12Cc3cnn(-c4ccc(F)cc4)c3C=C1CC[C@@]2(O)CCc1nccc(OC)c1C(F)C(N)=O` (stereo partly drawn) [Example 65, 2-(2-{2-[(4aS,5R)-4a-Ethyl-1-(4-fluorophenyl)-5-hydroxy-1,4,4a,5,6,7-hexahydrocyclopenta[f]indazol-5-yl]ethyl}-4-methoxypyridin-3-yl)-2-fluoroacetamide] the Emax (A549 cells) was 34% and the EC50 (A549 cells) was 175 nM.

Work on `CC[C@]12Cc3cnn(-c4ccc(F)cc4)c3C=C1CC[C@@]2(O)CCc1ccccc1S(=O)(=O)CC` [Example 51, (4aS,5R)-4a-Ethyl-5-{2-[2-(ethylsulfonyl)phenyl]ethyl}-1-(4-fluorophenyl)-1,4,4a,5,6,7-hexahydrocyclopenta[f]indazol-5-ol] yielded an Emax (A549, A549 cells) of 28% and an EC50 (A549 cells) of 92 nM.

`NC(=O)c1cc(F)cnc1CC[C@]1(O)CCC2=Cc3c(cnn3-c3ccc(F)cc3)C[C@@]21C1CC1` [Example 4, 2-{2-[(4aR,5R)-4a-Cyclopropyl-1-(4-fluorophenyl)-5-hydroxy-1,4,4a,5,6,7-hexahydrocyclopenta[f]indazol-5-yl]ethyl}-5-fluoropyridine-3-carboxamide] was tested, and the Emax (A549, A549 cells) was 14% and the EC50 (A549 cells) was 116 nM.

`CC[C@]12Cc3cnn(-c4ccccc4)c3C=C1CC[C@@]2(O)CCc1ccccc1C(N)=O` [Example 20, 2-{2-[(4aS,5R)-4a-Ethyl-5-hydroxy-1-phenyl-1,4,4a,5,6,7-hexahydrocyclopenta[f]indazol-5-yl]ethyl}benzamide] gave an Emax (A549, A549 cells) of 51% and an EC50 (A549 cells) of 45 nM.

In the case of `NC(=O)Cc1c(F)cccc1CC[C@]1(O)CCC2=Cc3c(cnn3-c3ccc(F)cc3)C[C@@]21C1CC1` [Example 61, 2-(2-{2-[(4aR,5R)-4a-Cyclopropyl-1-(4-fluorophenyl)-5-hydroxy-1,4,4a,5,6,7-hexahydrocyclopenta[f]indazol-5-yl]ethyl}-6-fluorophenyl)acetamide], the Emax (A549, A549 cells) is reported as 13% and the EC50 (A549 cells) is reported as 21 nM.

With `CC[C@]12Cc3cnn(-c4ccccc4)c3C=C1CC[C@@]2(O)CCc1cccc(F)c1C#N` [Example 15, 2-{2-[(4aS,5R)-4a-Ethyl-5-hydroxy-1-phenyl-1,4,4a,5,6,7-hexahydrocyclopenta[f]indazol-5-yl]ethyl}-6-fluorobenzonitrile] the Emax (A549, A549 cells) was 29% and the EC50 (A549 cells) was 62 nM.

In the case of `CC[C@]12Cc3cnn(-c4ccc(F)cc4)c3C=C1CC[C@@]2(O)CCc1ccccc1CCC(N)=O` [Example 22, 3-(2-{2-[(4aS,5R)-4a-Ethyl-1-(4-fluorophenyl)-5-hydroxy-1,4,4a,5,6,7-hexahydrocyclopenta[f]indazol-5-yl]ethyl}phenyl)propanamide], the Emax (A549, A549 cells) is reported as 28% and the EC50 (A549 cells) is reported as 123 nM.

In the case of `CC[C@]12Cc3cnn(-c4ccc(F)cc4)c3C=C1CC[C@@]2(O)CCc1cc(F)ccn1` [Example 18, (4aS,5R)-4a-Ethyl-1-(4-fluorophenyl)-5-[2-(4-fluoropyridin-2-yl)ethyl]-1,4,4a,5,6,7-hexahydrocyclopenta[f]indazol-5-ol], the Emax (A549, A549 cells) is reported as 32% and the EC50 (A549 cells) is reported as 52 nM.

`CC[C@]12Cc3cnn(-c4ccc(F)cc4)c3C=C1CC[C@@]2(O)CC(O)c1ncccc1F` (stereo partly drawn) [Example 77, (4aS,5R)-4a-Ethyl-1-(4-fluorophenyl)-5-[2-(3-fluoropyridin-2-yl)-2-hydroxyethyl]-1,4,4a,5,6,7-hexahydrocyclopenta[f]indazol-5-ol] was tested, and the “Transactivation A549 Cells Grammer Emax (%)” value (A549 cells) was 23% and the EC50 (A549 cells) was 115 nM.

For `CC[C@]12Cc3cnn(-c4ccc(F)cc4)c3C=C1CC[C@@]2(O)CC(O)c1ccccn1` (stereo partly drawn) [Example 68, (4aS,5R)-4a-Ethyl-1-(4-fluorophenyl)-5-[2-hydroxy-2-(pyridin-2-yl)ethyl]-1,4,4a,5,6,7-hexahydrocyclopenta[f]indazol-5-ol], the Emax (A549, A549 cells) was 21% and the EC50 (A549 cells) was 49 nM.

With `CC[C@]12Cc3cnn(-c4ccc(F)cc4)c3C=C1CC[C@@]2(O)CCc1ccc(F)cc1C(N)=O` [Example 8, 2-{2-[(4aS,5R)-4a-Ethyl-1-(4-fluorophenyl)-5-hydroxy-1,4,4a,5,6,7-hexahydrocyclopenta[f]indazol-5-yl]ethyl}-5-fluorobenzamide] the Emax (A549, A549 cells) was 47% and the EC50 (A549 cells) was 106 nM.

Work on `CC[C@]12Cc3cnn(-c4ccc(F)cc4)c3C=C1CC[C@@]2(O)CCc1ncccc1F` [Example 17, (4aS,5R)-4a-Ethyl-1-(4-fluorophenyl)-5-[2-(3-fluoropyridin-2-yl)ethyl]-1,4,4a,5,6,7-hexahydrocyclopenta[f]indazol-5-ol] yielded an Emax (A549, A549 cells) of 44% and an EC50 (A549 cells) of 30 nM.

`CC[C@]12Cc3cnn(-c4ccc(F)cc4)c3C=C1CC[C@@]2(O)CC(O)c1ncccc1F` (stereo partly drawn) [Example 76, (4aS,5R)-4a-Ethyl-1-(4-fluorophenyl)-5-[2-(3-fluoropyridin-2-yl)-2-hydroxyethyl]-1,4,4a,5,6,7-hexahydrocyclopenta[f]indazol-5-ol] gave an Emax (A549, A549 cells) of 31% and an EC50 (A549 cells) of 142 nM.

`N#Cc1cccnc1CC[C@]1(O)CCC2=Cc3c(cnn3-c3ccc(F)cc3)C[C@@]21C1CC1` [Example 31, 2-{2-[(4aR,5R)-4a-Cyclopropyl-1-(4-fluorophenyl)-5-hydroxy-1,4,4a,5,6,7-hexahydrocyclopenta[f]indazol-5-yl]ethyl}pyridine-3-carbonitrile] showed an Emax (A549, A549 cells) of 24% and an EC50 (A549 cells) of 9 nM.

For `CC[C@]12Cc3cnn(-c4ccc(F)cc4)c3C=C1CC[C@@]2(O)CCc1ccccc1C(O)C(N)=O` (stereo partly drawn) [Example 25, 2-(2-{2-[(4aS,5R)-4a-Ethyl-1-(4-fluorophenyl)-5-hydroxy-1,4,4a,5,6,7-hexahydrocyclopenta[f]indazol-5-yl]ethyl}phenyl)-2-hydroxyacetamide], the “Transactivation A549 Cells Grammer Emax (%)” value (A549 cells) was 22% and the EC50 (A549 cells) was 195 nM.
